Reference: patent publication US20100120763A1, “IMIDAZO[5,1-C][1,2,4]BENZOTRIAZINE DERIVATIVES AS INHIBITORS OF PHOSPHODIESTERASES” (priority 2008, published 2010)
Like-named read-outs stand apart in the source and are kept apart here.

Tests used:
PDE10A = target: T1, PDE10A (Homo sapiens, UniProt Q9Y233); test: Inhibition of recombinant PDE10A (baculovirus/SF21 system), [3H]-cAMP SPA; assay type: biochemical
T1 construct: made in house; host or cells: SF21 insect cells (baculovirus)

PDE2A = target: T2, PDE2A (Homo sapiens, UniProt O00408); test: Inhibition of recombinant PDE2A (expressed in baculovirus/SF21-cells), [3H]-cAMP SPA; assay type: biochemical
T2 construct: made in house; host or cells: SF21 insect cells (baculovirus)
T2 sequence (O00408 whole entry): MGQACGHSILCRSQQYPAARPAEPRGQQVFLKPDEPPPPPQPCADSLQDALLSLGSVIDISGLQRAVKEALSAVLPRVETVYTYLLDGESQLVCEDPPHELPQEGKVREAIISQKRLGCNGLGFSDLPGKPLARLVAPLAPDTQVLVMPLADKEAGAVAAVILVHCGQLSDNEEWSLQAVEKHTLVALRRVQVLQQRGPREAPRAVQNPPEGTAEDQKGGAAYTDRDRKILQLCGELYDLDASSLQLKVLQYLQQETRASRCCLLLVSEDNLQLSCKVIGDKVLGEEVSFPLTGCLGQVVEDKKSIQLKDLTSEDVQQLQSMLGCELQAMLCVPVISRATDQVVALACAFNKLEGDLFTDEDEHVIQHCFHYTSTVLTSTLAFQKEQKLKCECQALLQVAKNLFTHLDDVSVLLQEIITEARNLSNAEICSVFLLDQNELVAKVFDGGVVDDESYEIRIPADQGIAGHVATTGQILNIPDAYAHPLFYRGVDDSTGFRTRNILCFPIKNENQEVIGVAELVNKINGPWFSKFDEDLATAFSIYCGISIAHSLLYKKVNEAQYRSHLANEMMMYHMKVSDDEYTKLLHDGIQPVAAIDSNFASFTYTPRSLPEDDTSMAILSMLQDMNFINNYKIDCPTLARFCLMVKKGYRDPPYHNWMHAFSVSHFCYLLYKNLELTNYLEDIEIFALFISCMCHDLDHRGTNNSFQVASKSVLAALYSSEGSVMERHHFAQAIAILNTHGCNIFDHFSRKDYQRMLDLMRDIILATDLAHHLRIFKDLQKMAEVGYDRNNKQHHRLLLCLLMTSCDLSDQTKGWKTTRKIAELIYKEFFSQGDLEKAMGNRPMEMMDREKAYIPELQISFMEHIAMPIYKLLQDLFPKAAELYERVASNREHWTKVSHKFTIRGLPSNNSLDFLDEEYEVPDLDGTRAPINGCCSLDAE
In short: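 Membrane fraction of baculovirus/SF21-expressed PDE2A was incubated 30 min at 37° C in Tris-HCl/MgCl2 pH 7.4 with 0.5 μM [3H]-cAMP and 1000 nM cGMP as activator. Product was detected by SPA scintillation. IC50 used a Hill-plot 2-parameter model.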

[1] = recombinant PDE10A1, cytosolic, 0.1 μM [3H]-cAMP, 37° C., 30 minutes, read-out: PDE10A IC50

T1 sequence (Q9Y233 1-779 isoform Q9Y233-1): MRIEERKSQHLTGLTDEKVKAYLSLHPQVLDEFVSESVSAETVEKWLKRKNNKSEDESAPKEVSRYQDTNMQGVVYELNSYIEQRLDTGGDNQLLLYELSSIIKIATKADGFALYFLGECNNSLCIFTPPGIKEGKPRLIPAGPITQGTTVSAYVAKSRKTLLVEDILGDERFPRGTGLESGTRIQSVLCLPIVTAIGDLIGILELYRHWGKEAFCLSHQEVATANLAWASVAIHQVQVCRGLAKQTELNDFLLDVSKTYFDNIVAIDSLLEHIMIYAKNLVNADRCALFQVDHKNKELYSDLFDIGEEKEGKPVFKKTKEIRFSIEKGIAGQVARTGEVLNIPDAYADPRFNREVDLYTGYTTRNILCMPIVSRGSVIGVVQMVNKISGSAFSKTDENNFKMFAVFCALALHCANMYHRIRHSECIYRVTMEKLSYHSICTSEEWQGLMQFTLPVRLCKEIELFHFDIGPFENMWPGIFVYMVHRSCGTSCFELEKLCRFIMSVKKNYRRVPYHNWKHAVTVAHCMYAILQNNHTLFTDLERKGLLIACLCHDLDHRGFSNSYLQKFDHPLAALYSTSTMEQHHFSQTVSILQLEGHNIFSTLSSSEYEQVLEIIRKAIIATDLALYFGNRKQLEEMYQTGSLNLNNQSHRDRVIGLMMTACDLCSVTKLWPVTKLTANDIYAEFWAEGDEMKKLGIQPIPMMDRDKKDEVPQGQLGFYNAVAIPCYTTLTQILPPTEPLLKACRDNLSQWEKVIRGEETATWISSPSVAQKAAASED

Row | Structure (SMILES) | IC50 (PDE10A; [1]) [nM] | IC50 (PDE2A) [nM] | melting point | IC50 (PDE10A) [nM]
1 | Cc1nc(-c2cc(C(F)(F)F)ccc2F)n2c1nnc1cc(F)ccc12 [Example 30, 7-fluoro-1-(2-fluoro-5-(trifluoromethyl)phenyl)-3-methylbenzo[e]imidazo[5,1-c][1,2,4]triazine] | > 1000 | 1790 | 205 to 206 °C | –
2 | CCCCOc1ccc(F)c(-c2nc(C)c3nnc4ccc(F)cc4n23)c1 [Example 22, 1-(5-butoxy-2-fluorophenyl)-8-fluoro-3-methylbenzo[e]imidazo[5,1-c][1,2,4]triazine] | > 500 | 37.7 | 148 to 151 °C | –
3 | CCCc1nc(C)c2nnc3ccc(F)cc3n12 [Example 1, 8-fluoro-3-methyl-1-propyl-imidazo[5,1-c][1,2,4]benzotriazine] | 626 | 716 | 124.5 to 126.5 °C | –
4 | Cc1ncn2c1nnc1ccc(F)cc12 [Example 11, 8-fluoro-3-methylbenzo[e]imidazo[5,1-c][1,2,4]triazine] | > 10000 | > 10000 | 230 °C | –
5 | CCC(C)c1nc(C)c2nnc3ccc(F)cc3n12 (stereo not drawn) [Example 10, 1-sec-butyl-8-fluoro-3-methylbenzo[e]imidazo[5,1-c][1,2,4]triazine] | – | 1530 | 169 to 171.5 °C | 410
6 | CCCOc1ccc(F)c(-c2nc(C)c3nnc4ccc(F)cc4n23)c1 [Example 23, 8-fluoro-1-(2-fluoro-5-propoxyphenyl)-3-methylbenzo[e]imidazo[5,1-c][1,2,4]triazine] | 1540 | 59.1 | 153 to 155 °C | –
7 | Cc1ncccc1-c1nc(C)c2nnc3ccc(F)cc3n12 [Example 12, 8-fluoro-3-methyl-1-(2-methylpyridin-3-yl)benzo[e]imidazo[5,1-c][1,2,4]triazine] | 780 | 187 | 207 to 210 °C | –
8 | COc1ccccc1-c1nc(C)c2nnc3ccc(F)cc3n12 [Example 16, 8-fluoro-1-(2-methoxyphenyl)-3-methylbenzo[e]imidazo[5,1-c][1,2,4]triazine] | 456 | 351 | 196 to 198 °C | –
9 | CCOc1ccc(F)c(-c2nc(C)c3nnc4ccc(F)cc4n23)c1 [Example 24, 1-(5-ethoxy-2-fluorophenyl)-8-fluoro-3-methylbenzo[e]imidazo[5,1-c][1,2,4]triazine] | > 500 | 240 | 189 to 191 °C | –
10 | Cc1cc(F)ccc1-c1nc(C)c2nnc3cc(F)ccc3n12 [Example 27, 7-fluoro-1-(4-fluoro-2-methylphenyl)-3-methylbenzo[e]imidazo[5,1-c][1,2,4]triazine] | 911 | 298 | 181 to 184 °C | –
11 | COc1ccc2nnc3c(C)nc(-c4cc(OC(C)C)ccc4F)n3c2c1 [Example 44, 1-(2-fluoro-5-isopropoxyphenyl)-8-methoxy-3-methylbenzo[e]imidazo[5,1-c][1,2,4]triazine] | 1550 | 121 | 204 to 207 °C | –
12 | Cc1ncccc1-c1nc(C)c2nnc3cc(F)ccc3n12 [Example 25, 7-fluoro-3-methyl-1-(2-methylpyridin-3-yl)benzo[e]imidazo[5,1-c][1,2,4]triazine] | 1490 | 341 | 169 to 172 °C | –
13 | Cc1nc(-c2cc(OC(C)C)ccc2F)n2c1nnc1ccc(Cl)cc12 [Example 43, 8-chloro-1-(2-fluoro-5-isopropoxyphenyl)-3-methylbenzo[e]imidazo[5,1-c][1,2,4]triazine] | > 500 | 233 | 174 to 177 °C | –
14 | Cc1nc(-c2cc(Cl)ccc2Cl)n2c1nnc1cc(F)ccc12 [Example 6, 1-(2,5-dichlorophenyl)-7-fluoro-3-methyl-imidazo[5,1-c][1,2,4]benzotriazine] | 761 | 29.8 | 186 to 190 °C | –
15 | Cc1nc(-c2cnccc2Cl)n2c1nnc1ccc(F)cc12 [Example 19, 1-(4-chloropyridin-3-yl)-8-fluoro-3-methylbenzo[e]imidazo[5,1-c][1,2,4]triazine] | 2030 | 1360 | 141 to 144 °C | –
16 | Cc1nc(-c2ccnn2C)n2c1nnc1ccc(Cl)cc12 [Example 40, 8-chloro-3-methyl-1-(1-methyl-1H-pyrazol-5-yl)benzo[e]imidazo[5,1-c][1,2,4]triazine] | 3940 | 1410 | 230 to 231 °C | –
17 | COc1ccccc1-c1nc(C)c2nnc3cc(F)ccc3n12 [Example 26, 7-fluoro-1-(2-methoxyphenyl)-3-methylbenzo[e]imidazo[5,1-c][1,2,4]triazine] | 635 | 500 | 249 to 251 °C | –
18 | COc1ccc(Cl)c(-c2nc(C)c3nnc4cc(F)ccc4n23)c1 [Example 29, 1-(2-chloro-5-methoxyphenyl)-7-fluoro-3-methylbenzo[e]imidazo[5,1-c][1,2,4]triazine] | 425 | 35.3 | 158 to 161.5 °C | –
19 | CCCCOc1ccc(F)c(-c2ccc3nnc4c(C)nc(-c5cc(OCCCC)ccc5F)n4c3c2)c1 [Example 175, 1,8-Bis-(5-butoxy-2-fluoro-phenyl)-3-methyl-imidazo[5,1-c][1,2,4]benzotriazine] | 21.6 | 0.77 | 94 to 95 °C | –

More lines, in order of falling IC50 (PDE10A; [1]), values ahead:

Row | IC50 (PDE10A; [1]) [nM] | IC50 (PDE2A) [nM] | melting point | Structure (SMILES) | IC50 (PDE10A) [nM]
20 | 359 | 122 | 149 to 152 °C | Cc1ccccc1-c1nc(C)c2nnc3cc(F)ccc3n12 [Example 28, 7-fluoro-3-methyl-1-o-tolylbenzo[e]imidazo[5,1-c][1,2,4]triazine] | –
21 | 351 | 73.4 | 202 to 205 °C | COc1ccc2c(c1)nnc1c(C)nc(-c3cccnc3C)n12 [Example 36, 7-methoxy-3-methyl-1(2-methylpyridin-3-yl)benzo[e]imidazo[5,1-c][1,2,4]triazine] | –
22 | 308 | 371 | 193 to 196 °C | Cc1nc(-c2cccc(Cl)c2Cl)n2c1nnc1ccc(F)cc12 [Example 14, 1-(2,3-dichlorophenyl)-8-fluoro-3-methylbenzo[e]imidazo[5,1-c][1,2,4]triazine] | –
23 | 258 | 17.8 | 144 to 147 °C | COc1ccc2c(c1)nnc1c(C)nc(-c3cc(Cl)ccc3Cl)n12 [Example 7, 1-(2,5-dichlorophenyl)-7-methoxy-3-methyl-imidazo[5,1-c][1,2,4]benzotriazine] | –
24 | 228 | 541 | 246 to 250 °C (dec.) | Cc1nc(C2CCCCC2)n2c1nnc1ccc(F)cc12 [Example 4, 1-cyclohexyl-8-fluoro-3-methyl-imidazo[5,1-c][1,2,4]benzotriazine] | –
25 | 207 | 41.4 | 235 to 236 °C | Cc1ncccc1-c1nc(C)c2nnc3ccc(Cl)cc3n12 [Example 38, 8-chloro-3-methyl-1-(2-methylpyridin-3-yl)benzo[e]imidazo[5,1-c][1,2,4]triazine] | –
26 | 196 | 122 | 192 to 195 °C | Cc1ccccc1-c1nc(C)c2nnc3ccc(F)cc3n12 [Example 17, 8-fluoro-3-methyl-1-o-tolylbenzo[e]imidazo[5,1-c][1,2,4]triazine] | –
27 | 176 | 36.5 | 146 to 149 °C | Cc1nc(-c2cc(Cl)ccc2Cl)n2c1nnc1ccc(F)cc12 [Example 8, 1-(2,5-dichlorophenyl)-8-fluoro-3-methylbenzo[e]imidazo[5,1-c][1,2,4]triazine] | –
28 | 77.2 | 5.31 | 188 to 190 °C | Cc1nc(-c2cc(Cl)ccc2Cl)n2c1nnc1ccc(Cl)cc12 [Example 37, 8-chloro-1-(2,5-dichlorophenyl)-3-methylbenzo[e]imidazo[5,1-c][1,2,4]triazine] | –
29 | 75.2 | 26.7 | 163 to 165 °C | COc1ccc2c(c1)nnc1c(C)nc(-c3ccccc3Cl)n12 [Example 34, 1-(2-chlorophenyl)-7-methoxy-3-methylbenzo[e]imidazo[5,1-c][1,2,4]triazine] | –
30 | 71.2 | 2190 | 199 to 202 °C | COc1cc2nnc3c(C)nc(-c4ccccn4)n3c2cc1OC [Example 50, 7,8-dimethoxy-3-methyl-1-(pyridin-2-yl)benzo[e]imidazo[5,1-c][1,2,4]triazine] | –
31 | 41.1 | 3.55 | 134 to 136 °C | CCCOc1ccc(F)c(-c2ccc3nnc4c(C)nc(-c5cc(OCCC)ccc5F)n4c3c2)c1 [Example 174, 1,8-Bis-(2-fluoro-5-propoxy-phenyl)-3-methyl-imidazo[5,1-c][1,2,4]benzotriazine] | –
32 | 24.6 | 9.72 | 174 to 177 °C | Cc1nc(-c2ccccc2Cl)n2c1nnc1ccc(OCc3ccc(F)cc3)cc12 [Example 187, 1-(2-Chloro-phenyl)-8-(4-fluoro-benzyloxy)-3-methyl-imidazo[5,1-c][1,2,4]benzotriazine] | –
33 | 8.97 | 7.14 | 95 to 98 °C | Cc1nc(-c2ccccc2Cl)n2c1nnc1ccc(-n3ccnc3)cc12 [Example 185, 1-(2-Chloro-phenyl)-8-imidazol-1-yl-3-methyl-imidazo[5,1-c][1,2,4]benzotriazine] | –
34 | 6.55 | 1.28 | 172 to 175 °C | Cc1nc(-c2ccccc2Cl)n2c1nnc1ccc(-c3ccccc3Cl)cc12 [Example 172, 1,8-Bis-(2-chloro-phenyl)-3-methyl-imidazo[5,1-c][1,2,4]benzotriazine] | –
